Measurements reported in paper PMC2819846 (Mutation research, 2008).
Read-outs that look alike come from different tables or passages of the source.

Tests used:
Salmonella TA98 = assay: Salmonella plate-incorporation mutagenicity assay, strain TA98, with S9 mix; assay type: cell-based
[1] = tested on: DNA from Salmonella TA100; assay: Stable DNA adducts by 32P-postlabeling in DNA of treated TA100; assay type: cell-based; settings: DMSO 0.024 ± 0.000
Salmonella TA104 = assay: Salmonella plate-incorporation mutagenicity assay, strain TA104, with S9 mix; assay type: cell-based; settings: for Mutagenic potency, Revertants/µg ± S.E., TA104 / Mutagenicity call TA104: plate-incorporation, +S9
strain TA100 = assay type: cell-based, Salmonella; settings: TA100 liquid-suspension; for Percent survival: DMSO 100; for Rev/10^6 survivors: DMSO 0.8
[2] = tested on: DNA from Salmonella TA100; assay: Abasic sites by aldehydic-site assay in DNA of treated TA100; assay type: cell-based; settings: DMSO 5.9 ± 0.33
Salmonella = settings: cited from earlier work
Salmonella TA100 = assay: Salmonella plate-incorporation mutagenicity assay, strain TA100; assay type: cell-based; settings: for Mutagenic potency, Revertants/µg ± S.E., TA100 / Mutagenicity call TA100: plate-incorporation, +S9
[3] = TA98 +S9, Test 1, 2 µg/plate, zero-dose 33/40/39
[4] = TA98 +S9, Test 1, 5 µg/plate, zero-dose 33/40/39
[5] = TA98 +S9, Test 1, 10 µg/plate, zero-dose 33/40/39
[6] = TA98 +S9, Test 1, 20 µg/plate, zero-dose 33/40/39
[7] = TA98 +S9, Test 1, 40 µg/plate, zero-dose 33/40/39
[8] = TA98 +S9, Test 1, 80 µg/plate, zero-dose 33/40/39
[9] = TA98 +S9, Test 2, 5 µg/plate, zero-dose 43/41/30
[10] = TA98 +S9, Test 3, 5 µg/plate, zero-dose 49/50/50
[11] = TA104 +S9, Test 3, 0.5 µg/plate, zero-dose 402/395/336
[12] = TA104 +S9, Test 3, 1 µg/plate, zero-dose 402/395/336
[13] = TA104 +S9, Test 3, 5 µg/plate, zero-dose 402/395/336
[14] = TA100 +S9, Test 1, 2 µg/plate, zero-dose 99/110/110
[15] = TA100 +S9, Test 1, 5 µg/plate, zero-dose 99/110/110
[16] = TA100 +S9, Test 1, 10 µg/plate, zero-dose 99/110/110
[17] = TA100 +S9, Test 1, 20 µg/plate, zero-dose 99/110/110
[18] = TA100 +S9, Test 1, 40 µg/plate, zero-dose 99/110/110
[19] = TA100 +S9, Test 1, 80 µg/plate, zero-dose 99/110/110
[20] = TA100 +S9, Test 2, 0.5 µg/plate, zero-dose 84/78/80
[21] = TA100 +S9, Test 2, 1 µg/plate, zero-dose 84/78/80
[22] = TA100 +S9, Test 2, 5 µg/plate, zero-dose 84/78/80
[23] = TA100 +S9, Test 3, 0.5 µg/plate, zero-dose 127/118/125
[24] = TA100 +S9, Test 3, 1 µg/plate, zero-dose 127/118/125
[25] = TA100 +S9, Test 3, 5 µg/plate, zero-dose 127/118/125

## O[C@@H]1C=Cc2c(ccc3ccc4ccccc4c23)[C@H]1O (racemic) [B[c]P 3,4-diol, (± )-trans-3,4-Dihydrobenzo[c]phenanthrene 3,4-diol]
Salmonella TA98; [3]
  Rev/plate: 47 rev/plate
Salmonella TA98; [4]
  Rev/plate: 100 rev/plate
Salmonella TA98; [5]
  Rev/plate: 120 rev/plate
Salmonella TA98; [6]
  Rev/plate: 226 rev/plate
Salmonella TA98; [7]
  Rev/plate: 303 rev/plate
Salmonella TA98; [8]
  Rev/plate: 417 rev/plate
Salmonella TA98; [9]
  Rev/plate: 120/112
Salmonella TA98; TA98 +S9, Test 2, 10 µg/plate, zero-dose 43/41/30
  Rev/plate: 180/199
Salmonella TA98; TA98 +S9, Test 2, 20 µg/plate, zero-dose 43/41/30
  Rev/plate: 310/260
Salmonella TA98; TA98 +S9, Test 2, 40 µg/plate, zero-dose 43/41/30
  Rev/plate: 460/414
Salmonella TA98; TA98 +S9, Test 2, 80 µg/plate, zero-dose 43/41/30
  Rev/plate: 492/423
Salmonella TA98; [10]
  Rev/plate: 145/173
Salmonella TA98; TA98 +S9, Test 3, 10 µg/plate, zero-dose 49/50/50
  Rev/plate: 238/242
Salmonella TA98; TA98 +S9, Test 3, 20 µg/plate, zero-dose 49/50/50
  Rev/plate: 350/328
Salmonella TA98; TA98 +S9, Test 3, 40 µg/plate, zero-dose 49/50/50
  Rev/plate: 458/504
Salmonella TA98; TA98 +S9, Test 3, 80 µg/plate, zero-dose 49/50/50
  Rev/plate: 509/597
Salmonella TA98; plate-incorporation, +S9
  Mutagenic potency, Revertants/µg ± S.E., TA98: 11.1 ± 3.0 rev/µg
  Mutagenicity call TA98: (+) (Called mutagenic (+) based on showing reproducible, dose-related increases in rev/plate that reached or exceeded 2-fold relative to zero-dose controls)
[1]; TA100, 2 µg/ml
  Stable adducts/10^8 nucleotides ± S.E: 5.900 ± 0.230 adducts/10^8 nucleotides
[1]; TA100, 5 µg/ml
  Stable adducts/10^8 nucleotides ± S.E: 4.500 ± 0.034 adducts/10^8 nucleotides
Salmonella TA104; TA104 +S9, Test 1, 0.5 µg/plate, zero-dose 379/400/370
  Rev/plate: 770/707
Salmonella TA104; TA104 +S9, Test 1, 1 µg/plate, zero-dose 379/400/370
  Rev/plate: 1007/1137
Salmonella TA104; TA104 +S9, Test 1, 2.5 µg/plate, zero-dose 379/400/370
  Rev/plate: 1618/1616
Salmonella TA104; TA104 +S9, Test 1, 5 µg/plate, zero-dose 379/400/370
  Rev/plate: 1925/2036
Salmonella TA104; [11]
  Rev/plate: 663/615
Salmonella TA104; [12]
  Rev/plate: 923/920
Salmonella TA104; TA104 +S9, Test 3, 2.5 µg/plate, zero-dose 402/395/336
  Rev/plate: 1368/1509
Salmonella TA104; [13]
  Rev/plate: 1781/1775
Salmonella TA104; TA104 +S9, Test 4, 0.5 µg/plate, zero-dose 482/455/462
  Rev/plate: 655/635
Salmonella TA104; TA104 +S9, Test 4, 1 µg/plate, zero-dose 482/455/462
  Rev/plate: 913/888
Salmonella TA104; TA104 +S9, Test 4, 2.5 µg/plate, zero-dose 482/455/462
  Rev/plate: 1375/1312
Salmonella TA104; TA104 +S9, Test 4, 5 µg/plate, zero-dose 482/455/462
  Rev/plate: 1807/1818
Salmonella TA104
  Mutagenic potency, Revertants/µg ± S.E., TA104: 552 ± 62 rev/µg
  Mutagenicity call TA104: (+) (Called mutagenic (+) based on showing reproducible, dose-related increases in rev/plate that reached or exceeded 2-fold relative to zero-dose controls)
Strain TA100; 2 µg/ml
  Percent survival: 56%
Strain TA100; 5 µg/ml
  Fold increase in mutant frequency relative to DMSO-treated cells: 23.4 fold
  Rev/10^6 survivors: 18.7 Rev/10^6 survivors
  Percent survival: 20%
[2]; TA100, 2 µg/ml
  Abasic sites/10^5 nucleotides ± S.E: 4.2 ± 0.16 sites/10^5 nucleotides
[2]; TA100, 5 µg/ml
  Abasic sites/10^5 nucleotides ± S.E: 5.3 ± 0.27 sites/10^5 nucleotides
Salmonella
  Mutagenicity in Salmonella (early studies): mutagenic
Salmonella TA100; [14]
  Rev/plate: 694 rev/plate
Salmonella TA100; [15]
  Rev/plate: 1002 rev/plate
Salmonella TA100; [16]
  Rev/plate: 1067 rev/plate
Salmonella TA100; [17]
  Rev/plate: 942 rev/plate
Salmonella TA100; [18]
  Rev/plate: 381 rev/plate
Salmonella TA100; [19]
  Rev/plate: 100 rev/plate
Salmonella TA100; [20]
  Rev/plate: 151/162
Salmonella TA100; [21]
  Rev/plate: 244/241
Salmonella TA100; TA100 +S9, Test 2, 2.5 µg/plate, zero-dose 84/78/80
  Rev/plate: 533/604
Salmonella TA100; [22]
  Rev/plate: 598/153
Salmonella TA100; [23]
  Rev/plate: 335/357
Salmonella TA100; [24]
  Rev/plate: 474/494
Salmonella TA100; TA100 +S9, Test 3, 2.5 µg/plate, zero-dose 127/118/125
  Rev/plate: 848/945
Salmonella TA100; [25]
  Rev/plate: 1216/1218
Salmonella TA100; TA100 +S9, Test 4, 0.5 µg/plate, zero-dose 112/140/115
  Rev/plate: 328/304
Salmonella TA100; TA100 +S9, Test 4, 1 µg/plate, zero-dose 112/140/115
  Rev/plate: 613/577
Salmonella TA100; TA100 +S9, Test 4, 2.5 µg/plate, zero-dose 112/140/115
  Rev/plate: 938/941
Salmonella TA100; TA100 +S9, Test 4, 5 µg/plate, zero-dose 112/140/115
  Rev/plate: 1117/1140
Salmonella TA100
  Mutagenic potency, Revertants/µg ± S.E., TA100: 268 ± 46 rev/µg
  Mutagenicity call TA100: (+) (Called mutagenic (+) based on showing reproducible, dose-related increases in rev/plate that reached or exceeded 2-fold relative to zero-dose controls)

## c1ccc2c(c1)ccc1ccc3ccccc3c12 [B[c]P, Benzo[c]phenanthrene]
Salmonella TA98; [3]
  Rev/plate: 37 rev/plate
Salmonella TA98; [4]
  Rev/plate: 43 rev/plate
Salmonella TA98; [5]
  Rev/plate: 57 rev/plate
Salmonella TA98; [6]
  Rev/plate: 60 rev/plate
Salmonella TA98; [7]
  Rev/plate: 50 rev/plate
Salmonella TA98; [8]
  Rev/plate: 35 rev/plate
Salmonella TA98; TA98 +S9, Test 2, 0.5 µg/plate, zero-dose 43/41/30
  Rev/plate: 44/36
Salmonella TA98; TA98 +S9, Test 2, 1 µg/plate, zero-dose 43/41/30
  Rev/plate: 41/35
Salmonella TA98; TA98 +S9, Test 2, 2 µg/plate, zero-dose 43/41/30
  Rev/plate: 38/37
Salmonella TA98; [9]
  Rev/plate: 56/50
Salmonella TA98; TA98 +S9, Test 3, 0.5 µg/plate, zero-dose 49/50/50
  Rev/plate: 49/36
Salmonella TA98; TA98 +S9, Test 3, 1 µg/plate, zero-dose 49/50/50
  Rev/plate: 52/54
Salmonella TA98; TA98 +S9, Test 3, 2 µg/plate, zero-dose 49/50/50
  Rev/plate: 60/50
Salmonella TA98; [10]
  Rev/plate: 87/61
Salmonella TA98; plate-incorporation, +S9
  Mutagenic potency, Revertants/µg ± S.E., TA98: 1.2 ± 1.3 rev/µg
[1]; TA100, 20 µg/ml
  Stable adducts/10^8 nucleotides ± S.E: 1.600 ± 0.040 adducts/10^8 nucleotides
Salmonella TA104; TA104 +S9, Test 2, 0.5 µg/plate, zero-dose 276/260/270
  Rev/plate: 432/407
Salmonella TA104; TA104 +S9, Test 2, 1 µg/plate, zero-dose 276/260/270
  Rev/plate: 504/506
Salmonella TA104; TA104 +S9, Test 2, 2 µg/plate, zero-dose 276/260/270
  Rev/plate: 570/609
Salmonella TA104; TA104 +S9, Test 2, 5 µg/plate, zero-dose 276/260/270
  Rev/plate: 753/894
Salmonella TA104; [11]
  Rev/plate: 523/486
Salmonella TA104; [12]
  Rev/plate: 636/581
Salmonella TA104; TA104 +S9, Test 3, 2 µg/plate, zero-dose 402/395/336
  Rev/plate: 588/660
Salmonella TA104; [13]
  Rev/plate: 850/824
Salmonella TA104
  Mutagenic potency, Revertants/µg ± S.E., TA104: 241 ± 25 rev/µg
  Mutagenicity call TA104: (+) (Called mutagenic (+) based on showing reproducible, dose-related increases in rev/plate that reached or exceeded 2-fold relative to zero-dose controls)
Strain TA100; 20 µg/ml
  Fold increase in mutant frequency relative to DMSO-treated cells: 3.9 fold
  Rev/10^6 survivors: 3.1 Rev/10^6 survivors
  Percent survival: 71%
[2]; TA100, 20 µg/ml
  Abasic sites/10^5 nucleotides ± S.E: 3.3 ± 0.12 sites/10^5 nucleotides
Salmonella
  Mutagenicity in Salmonella (early studies): mutagenic
Salmonella TA100; [14]
  Rev/plate: 251 rev/plate
Salmonella TA100; [15]
  Rev/plate: 388 rev/plate
Salmonella TA100; [16]
  Rev/plate: 467 rev/plate
Salmonella TA100; [17]
  Rev/plate: 503 rev/plate
Salmonella TA100; [18]
  Rev/plate: 494 rev/plate
Salmonella TA100; [19]
  Rev/plate: 354 rev/plate
Salmonella TA100; [20]
  Rev/plate: 97/85
Salmonella TA100; [21]
  Rev/plate: 114/78
Salmonella TA100; TA100 +S9, Test 2, 2 µg/plate, zero-dose 84/78/80
  Rev/plate: 117/143
Salmonella TA100; [22]
  Rev/plate: 300/204
Salmonella TA100; [23]
  Rev/plate: 180/190
Salmonella TA100; [24]
  Rev/plate: 250/217
Salmonella TA100; TA100 +S9, Test 3, 2 µg/plate, zero-dose 127/118/125
  Rev/plate: 300/303
Salmonella TA100; [25]
  Rev/plate: 510/499
Salmonella TA100
  Mutagenic potency, Revertants/µg ± S.E., TA100: 56.4 ± 12.1 rev/µg
  Mutagenicity call TA100: (+) (Called mutagenic (+) based on showing reproducible, dose-related increases in rev/plate that reached or exceeded 2-fold relative to zero-dose controls)
